These results are taken from patent publication US9931347B2, “Pharmaceutical compound” (IOmet Pharma Ltd., priority 2013, dated 2018).

The structures appear in SMILES notation.

Experiment [1] addresses T1, TDO (A172 human glioblastoma cells) (Homo sapiens, UniProt P48775).
T1 construct: This assay utilised cancer cells which expressed either TDO or IDO; endogenous in cells; host or cells: A172 human glioblastoma cells
The experiment can be described thus: A172 Kynurenine cell based assay. The following applies: 500 μM L-tryptophan, 48 hours, kynurenine by Erhlich's reagent. In outline: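 Kynurenine released into the supernatant was quantified by absorbance at 490 nm after 5 min with Erhlich's reagent. A172 cells were seeded at 30,000/well and exposed to test compound for 48 hours at 37° C. in phenol red-free RPMI containing 500 μM L-tryptophan, 10% FCS and 2 mM L-glutamine.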

Experiment [2] concerns the target T2, IDO (SKOV3 human ovarian adenocarcinoma cells, IFN-γ induced) (Homo sapiens, UniProt P14902).
T2 construct: IDO expression was induced in the SKOV3 cells by the addition of 500 ng/ml IFN-γ; endogenous in cells; host or cells: SKOV3 human ovarian adenocarcinoma cells, induced with IFN-γ
The experiment can be described thus: SKOV3 Kynurenine cell based assay. The following applies: IDO induced by 500 ng/ml IFN-γ, 500 μM L-tryptophan, 48 hours. In outline: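 Kynurenine in the supernatant, detected by Ehrlich's reagent, served as read-out after 48 h at 37° C with or without test compound. SKOV3 cells (40,000/well) were grown in phenol red-free RPMI, 10% FCS, 2 mM L-glutamine, 500 μM L-tryptophan, with 500 ng/ml IFN-γ to induce IDO.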

The target in another experiment is Recombinant human IDO (Homo sapiens, UniProt P14902). The experiment can be described thus: hIDO biochemical coupled assay. The following applies: 45 μM L-tryptophan, coupled with kynurenine formamidase. The method in brief:
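Recombinant human IDO incubated in 50 mM KPO4 (pH 7.0), 0.5 mM EGTA, 0.5 mM EDTA, 0.05% Triton X100, 20 mM ascorbate, 10 μM methylene blue, 500 U/ml catalase and 50 μg/ml kynurenine formamidase. N-formylkynurenine converted to kynurenine, quantified by fluorescence after Ehrlich's reagent.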

Another experiment concerns the target Recombinant human TDO (Homo sapiens, UniProt P48775). The experiment can be described thus: hTDO biochemical coupled assay. The following applies: 330 μM L-tryptophan, coupled with kynurenine formamidase. The protocol: Exemplary compounds of the invention were prepared, and tested to determine their effect as TDO and/or IDO inhibitors. Two different assays were employed: 1. a cell-based assay for detecting the effect of test compounds on kynurenine production in two different cancer cell types. This assay utilised cancer cells which expressed either TDO or IDO and as such was used as a means of testing compound activity at these two enzymes in a cell-based context. 2. a TDO and IDO biochemical coupled assay which utilised recombinantly produced and purified TDO and IDO enzymes in combination with the enzyme formamidase. This coupled enzyme system allowed conversion of N-formylkynurenine produced by TDO or IDO activity to kynurenine which was then quantified by fluorescence following addition of Erhlich's Reagent The protocols for these are set out below.
Recombinant human IDO or TDO was incubated in 50 mM KPO4 (pH 7.0), 0.5 mM EGTA, 0.5 mM EDTA, 0.05% Triton™ X100, 20 mM ascorbate, 10 μM methylene blue, 500 U/ml catalase, 50 μg/ml KynB (kynurenine formamidase). TDO assays were carried out in the presence of 330 μM L-tryptophan, while IDO assays had the addition of 45 μM L-tryptophan. After incubation for 17 minutes at room temperature the reactions were stopped by the addition of Erhlich's reagent and incubated at room temperature for 5 minutes before the fluorescence was read (Ex475, Em530).

T2 sequence (P14902 whole entry): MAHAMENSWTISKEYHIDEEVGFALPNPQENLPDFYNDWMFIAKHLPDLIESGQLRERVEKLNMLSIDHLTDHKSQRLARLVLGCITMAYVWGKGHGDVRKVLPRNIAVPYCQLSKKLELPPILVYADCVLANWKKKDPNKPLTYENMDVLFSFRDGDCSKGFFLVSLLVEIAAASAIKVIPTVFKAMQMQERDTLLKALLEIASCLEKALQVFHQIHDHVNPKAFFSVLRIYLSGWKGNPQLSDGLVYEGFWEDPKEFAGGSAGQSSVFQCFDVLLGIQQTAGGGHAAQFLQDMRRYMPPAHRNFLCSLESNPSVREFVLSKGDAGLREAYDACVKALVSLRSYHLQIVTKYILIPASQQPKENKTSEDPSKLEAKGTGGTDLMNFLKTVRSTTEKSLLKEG
Sequence of Recombinant human IDO (P14902 whole entry): as above
T1 sequence (P48775 whole entry): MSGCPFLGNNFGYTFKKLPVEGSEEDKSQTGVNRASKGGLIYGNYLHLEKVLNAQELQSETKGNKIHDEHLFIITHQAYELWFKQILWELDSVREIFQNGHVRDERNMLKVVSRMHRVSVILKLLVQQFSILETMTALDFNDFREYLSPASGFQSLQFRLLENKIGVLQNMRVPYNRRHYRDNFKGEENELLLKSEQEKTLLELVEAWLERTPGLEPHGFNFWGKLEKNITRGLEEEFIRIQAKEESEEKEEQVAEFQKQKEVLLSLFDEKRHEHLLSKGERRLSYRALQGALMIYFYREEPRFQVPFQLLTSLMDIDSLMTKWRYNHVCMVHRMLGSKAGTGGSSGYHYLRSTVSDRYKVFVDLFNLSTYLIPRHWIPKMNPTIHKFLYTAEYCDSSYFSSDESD
Sequence of Recombinant human TDO (P48775 whole entry): as above

On to `COc1cccc2c(C3=CCN(S(C)(=O)=O)CC3)c[nH]c12` [Compound 93], for which the “A172 Kynurenine cell based assay pIC50” value in experiment [1] is on record as “+− (+− = pIC50 <4.00)”. For the same compound, the “SKOV3 Kynurenine cell based assay pIC50” value in experiment [2] is on record as “+− (+− = pIC50 <4.00)”. Besides, at Recombinant human IDO, the “hIDO biocehmical assay pIC50” value is “+− (+− = pIC50 <4.00)”. Further, at Recombinant human TDO, the “hTDO biochemical assay pIC50” value is recorded as “+ (+ = pIC50 4.00-4.99)”.
Consider `Cc1cccc2c(C3CCN(C(=O)c4ccccc4OC(F)(F)F)CC3)c[nH]c12` [Compound 59], for which the “A172 Kynurenine cell based assay pIC50” value in experiment [1] is on record as “+ (+ = pIC50 4.00-4.99)”. In addition, the “SKOV3 Kynurenine cell based assay pIC50” value in experiment [2] was “+ (+ = pIC50 4.00-4.99)”. The “hIDO biocehmical assay pIC50” value on Recombinant human IDO is “+− (+− = pIC50 <4.00)”. Further, the “hTDO biochemical assay pIC50” value at Recombinant human TDO is reported as “+− (+− = pIC50 <4.00)”.
Consider `CN(C)CC(=O)N1CCC(c2c[nH]c3ccccc23)CC1` [Compound 81], for which the “A172 Kynurenine cell based assay pIC50” value in experiment [1] is given as “+− (+− = pIC50 <4.00)”. Besides, the “SKOV3 Kynurenine cell based assay pIC50” value in experiment [2] was “+− (+− = pIC50 <4.00)”. Moreover, at Recombinant human IDO, the “hIDO biocehmical assay pIC50” value is on record as “+− (+− = pIC50 <4.00)”. The “hTDO biochemical assay pIC50” value on Recombinant human TDO is “+ (+ = pIC50 4.00-4.99)”.
As to `CCCCS(=O)(=O)N1CC=C(c2c[nH]c3cc(F)ccc23)CC1` [Compound 18], the “A172 Kynurenine cell based assay pIC50” value in experiment [1] is listed as “++ (++ = pIC50 5.00-5.99)”. Moreover, the “SKOV3 Kynurenine cell based assay pIC50” value in experiment [2] is reported as “+ (+ = pIC50 4.00-4.99)”. Further, at Recombinant human IDO, the “hIDO biocehmical assay pIC50” value was “+− (+− = pIC50 <4.00)”. On Recombinant human TDO, the “hTDO biochemical assay pIC50” value is “+ (+ = pIC50 4.00-4.99)”.
Regarding `CC(=O)N1CCC(c2c[nH]c3cccc(F)c23)CC1` [Compound 98], the “A172 Kynurenine cell based assay pIC50” value in experiment [1] is reported as “+ (+ = pIC50 4.00-4.99)”. Besides, in experiment [2], the “SKOV3 Kynurenine cell based assay pIC50” value is given as “+− (+− = pIC50 <4.00)”. At Recombinant human IDO, the “hIDO biocehmical assay pIC50” value is recorded as “+− (+− = pIC50 <4.00)”. Moreover, the “hTDO biochemical assay pIC50” value on Recombinant human TDO is recorded as “+− (+− = pIC50 <4.00)”.
With `CS(=O)(=O)N1CC=C(c2c[nH]c3ccc(F)cc23)CC1` [Compound 90], the “A172 Kynurenine cell based assay pIC50” value in experiment [1] is recorded as “++ (++ = pIC50 5.00-5.99)”. The “SKOV3 Kynurenine cell based assay pIC50” value in experiment [2] is listed as “+ (+ = pIC50 4.00-4.99)”. Besides, the “hIDO biocehmical assay pIC50” value on Recombinant human IDO was “+− (+− = pIC50 <4.00)”. Further, on Recombinant human TDO, the “hTDO biochemical assay pIC50” value is “++ (++ = pIC50 5.00-5.99)”.
As to `CS(=O)(=O)N1CC=C(c2c[nH]c3ccc(Cl)cc23)CC1` [Compound 166], the “A172 Kynurenine cell based assay pIC50” value in experiment [1] was “++ (++ = pIC50 5.00-5.99)”. For the same compound, the “SKOV3 Kynurenine cell based assay pIC50” value in experiment [2] is reported as “+ (+ = pIC50 4.00-4.99)”. Moreover, the “hIDO biocehmical assay pIC50” value at Recombinant human IDO was “+− (+− = pIC50 <4.00)”. The “hTDO biochemical assay pIC50” value on Recombinant human TDO is “+ (+ = pIC50 4.00-4.99)”.
On to `COc1cccc2c(C3=CCN(C(C)=O)CC3)c[nH]c12` [Compound 88], for which, in experiment [1], the “A172 Kynurenine cell based assay pIC50” value was “+ (+ = pIC50 4.00-4.99)”. In addition, in experiment [2], the “SKOV3 Kynurenine cell based assay pIC50” value is “+− (+− = pIC50 <4.00)”. Besides, the “hIDO biocehmical assay pIC50” value on Recombinant human IDO is “+− (+− = pIC50 <4.00)”. Moreover, at Recombinant human TDO, the “hTDO biochemical assay pIC50” value was “++ (++ = pIC50 5.00-5.99)”.
On to `COCC(=O)N1CCC(c2c[nH]c3ccccc23)CC1` [Compound 84], for which the “A172 Kynurenine cell based assay pIC50” value in experiment [1] was “+ (+ = pIC50 4.00-4.99)”. For the same compound, the “SKOV3 Kynurenine cell based assay pIC50” value in experiment [2] is recorded as “+− (+− = pIC50 <4.00)”. Further, on Recombinant human IDO, the “hIDO biocehmical assay pIC50” value is given as “+− (+− = pIC50 <4.00)”. Also, the “hTDO biochemical assay pIC50” value on Recombinant human TDO is “+− (+− = pIC50 <4.00)”.
Consider `CC(=O)N1CC=C(c2c[nH]c3c(F)cccc23)CC1` [Compound 94], for which the “A172 Kynurenine cell based assay pIC50” value in experiment [1] was “+ (+ = pIC50 4.00-4.99)”. Besides, the “SKOV3 Kynurenine cell based assay pIC50” value in experiment [2] is “+− (+− = pIC50 <4.00)”. For the same compound, the “hIDO biocehmical assay pIC50” value on Recombinant human IDO was “+− (+− = pIC50 <4.00)”. For the same compound, at Recombinant human TDO, the “hTDO biochemical assay pIC50” value was “+ (+ = pIC50 4.00-4.99)”.
As for `Cc1ccc2[nH]cc(C3CCN(S(C)(=O)=O)CC3)c2c1` [Compound 85], the “A172 Kynurenine cell based assay pIC50” value in experiment [1] is on record as “++ (++ = pIC50 5.00-5.99)”. Further, the “SKOV3 Kynurenine cell based assay pIC50” value in experiment [2] is on record as “++ (++ = pIC50 5.00-5.99)”. The “hIDO biocehmical assay pIC50” value at Recombinant human IDO is listed as “+− (+− = pIC50 <4.00)”. For the same compound, the “hTDO biochemical assay pIC50” value on Recombinant human TDO is on record as “+− (+− = pIC50 <4.00)”.
